Assay results reported in patent publication US9714254B2, “Anilino podophyllin derivative having antitumor activity, method for preparation thereof, and use thereof” (HUBEI UNIVERSITY OF TECHNOLOGY, priority 2013, dated 2017).
Where two headings read alike, the source gives them in different places.

What was measured:
BGC823 cell line [1] = experiment: MTT test of inhibiting tumor cell activity, BGC823; details: read-out: Cytotoxic activity (IC50, μM) BGC823
Method: (§1) 3, cell lines: Hela, BGC823, A549 cell line and normal human hepatocytes which are available from Wu Han boster Co., Ltd.;
(§2) Hela, BGC823, A549 cell line and normal human hepatocytes in logarithmic growth phase are subjected to 1000 rpm centrifugation for 5 min, supernatant is then discarded, moderate medium is suspended, the cell concentration is adjusted to 3.5×10^4/well, the cells were seeded in 96-wells culture plate, and following experimental groups are set:
(§3) a negative control group; 22 test groups with same concentration (ie: groups of Compound (1) to Compound (22)); 2 control groups: groups of podophyllotoxin, 4′-demethylepipodophyllotoxin and etoposide.
(§4) Taking RPMI1640 containing 10% of calf serum as nutrient solution, 0.10 mL of cells per well is incubated under conditions of 37 V, 5% CO2 and saturated humidity for 24 h to nearly be covered, then the nutrient solution is discarded. […] 100 μl of DMSO is added to each well, then vibrated at 37° C. by shaker table for 30 min, then measuring absorbance (OD) at 492 nm, calculating MTT ratio=OD value of drug group/OD value of the negative control group.

A549 cell line [2] = experiment: MTT test of inhibiting tumor cell activity, A549; details: read-out: Cytotoxic activity (IC50, μM) A549
Method: as §1, §2, §3, §4

Hela cell line [3] = experiment: MTT test of inhibiting tumor cell activity, Hela; details: read-out: Cytotoxic activity (IC50, μM) Hela
Method: as §1, §2, §3, §4

BGC823 cell line [4] = system: BGC823 cell line
Method: as §1, §2, §3, §4

A549 cell line [5] = system: A549 cell line
Method: as §1, §2, §3, §4

Hela cell line [6] = system: Hela cell line
Method: as §1, §2, §3, §4

[7] = BGC823 cells, MTT, 48 h cultivation
[8] = A549 cells, MTT, 48 h cultivation
[9] = Hela cells, MTT, 48 h cultivation

Compound	IC50 (BGC823 cell line [1]; [7])	IC50 (A549 cell line [2]; [8])	IC50 (Hela cell line [3]; [9])	other results
COc1ccc(Cl)cc1NC1c2cc3c(cc2C(c2cc(OC)c(OC)c(OC)c2)C2C(=O)OCC12)OCO3 (stereo not drawn) [Compound 9, 4-N-(4-chloro-2-aminoanisole)-4-deoxy-podophyllotoxin]	1.24 ± 0.06 µM	1.71 ± 0.26 µM	8.07 ± 1.81 µM	
COc1cc(C2c3cc4c(cc3C(Nc3ccc(Cl)c(C)c3)C3COC(=O)C23)OCO4)cc(OC)c1OC (stereo not drawn) [Compound 1, 4-N-(4-chloro-3-methylaniline)-4-deoxy-podophyllotoxin]				IC50 (BGC823 cell line [4]): 0.62 ± 0.13 µM; IC50 (A549 cell line [5]): 1.75 ± 0.83 µM; IC50 (Hela cell line [6]): 1.26 ± 0.37 µM
COc1ccccc1NC1c2cc3c(cc2C(c2cc(OC)c(O)c(OC)c2)C2C(=O)OCC12)OCO3 (stereo not drawn) [Compound 8, 4-N-(o-aminoanisole)-4-deoxy-4′-demethylepipodophyllotoxin]	5.63 ± 1.2 µM	15.3 ± 0.45 µM	1.72 ± 0.3 µM	
COc1ccccc1NC1c2cc3c(cc2C(c2cc(OC)c(OC)c(OC)c2)C2C(=O)OCC12)OCO3 (stereo not drawn) [Compound 7, 4-N-(o-aminoanisole)-4-deoxy-podophyllotoxin]	6.26 ± 0.36 µM	3.41 ± 0.1 µM	13.4 ± 3.31 µM	
COc1cc(C2c3cc4c(cc3C(Nc3ccccc3C(F)(F)F)C3COC(=O)C23)OCO4)cc(OC)c1OC (stereo not drawn) [Compound 21, 4-N-(2-aminobenzotrifluoride)-4-deoxy-podophyllotoxin]	23.2 ± 0.76 µM	2.11 ± 0.05 µM	2.45 ± 3.04 µM	
COc1ccc(NC2c3cc4c(cc3C(c3cc(OC)c(OC)c(OC)c3)C3C(=O)OCC23)OCO4)cc1F (stereo not drawn) [Compound 3, 4-N-(3-fluoro-4-methoxyaniline)-4-deoxy-podophyllotoxin]	3.16 ± 1.11 µM	1.97 ± 0.32 µM	2.57 ± 0.87 µM	
COc1ccc(NC2c3cc4c(cc3C(c3cc(OC)c(O)c(OC)c3)C3C(=O)OCC23)OCO4)cc1F (stereo not drawn) [Compound 4, 4-N-(3-fluoro-4-methoxyaniline)-4-deoxy-4′-demethylepipodophyllotoxin]	0.4 ± 0.17 µM	3.04 ± 0.23 µM	1.97 ± 0.16 µM	
COc1cc([C@@H]2c3cc4c(cc3[C@@H](O[C@@H]3O[C@@H]5CO[C@@H](C)O[C@H]5[C@H](O)[C@H]3O)[C@H]3COC(=O)[C@H]23)OCO4)cc(OC)c1O [VP-16, etoposide, reference compound]	22.3 ± 2.97 µM	31.1 ± 1.72 µM	13.2 ± 1.65 µM	
COc1cc(C2c3cc4c(cc3C(Nc3ccccc3C(F)(F)F)C3COC(=O)C23)OCO4)cc(OC)c1O (stereo not drawn) [Compound 22, 4-N-(2-aminobenzotrifluoride)-4-deoxy-4′-demethylepipodophyllotoxin]	6.01 ± 0.12 µM	9.72 ± 0.98 µM	5.89 ± 0.48 µM	
COc1cc(C2c3cc4c(cc3C(Nc3ccccc3Sc3ccccc3N)C3COC(=O)C23)OCO4)cc(OC)c1OC (stereo not drawn) [Compound 19, 4-N-(2 2′-diaminodiphenylsulfide)-4-deoxy-podophyllotoxin]	6.46 ± 0.33 µM	23.2 ± 0.72 µM	2.14 ± 0.21 µM	
COc1ccc(Cl)cc1NC1c2cc3c(cc2C(c2cc(OC)c(O)c(OC)c2)C2C(=O)OCC12)OCO3 (stereo not drawn) [Compound 10, 4-N-(4-chloro-2-aminoanisole)-4-deoxy-4′-demethylepipodophyllotoxin]	1.61 ± 0.37 µM	3.72 ± 0.41 µM	1.35 ± 0.18 µM	
COc1cc(C2c3cc4c(cc3C(Nc3cc(Cl)c(O)c(Cl)c3)C3COC(=O)C23)OCO4)cc(OC)c1OC (stereo not drawn) [Compound 13, 4-N-(2,6-dichloro-4-aminophenol)-4-deoxy-podophyllotoxin]	1.58 ± 0.16 µM	9.66 ± 0.35 µM	17.6 ± 2.39 µM	
COc1cc(C2c3cc4c(cc3C(Nc3ccc(Cc5ccc(N)cc5)cc3)C3COC(=O)C23)OCO4)cc(OC)c1O (stereo not drawn) [Compound 6, 4-N-(4,4′-diaminodiphenylmethane)-4-deoxy-4′-demethylepipodophyllotoxin]	3.52 ± 0.43 µM	2.2 ± 0.25 µM	0.56 ± 0.17 µM	
COc1cc(C2c3cc4c(cc3C(O)C3COC(=O)C23)OCO4)cc(OC)c1O (stereo not drawn) [4′-demethylepipodophyllotoxin, reference compound]	63 µM	52 µM	49 µM	
CCc1ccc([N+](=O)[O-])cc1NC1c2cc3c(cc2C(c2cc(OC)c(OC)c(OC)c2)C2C(=O)OCC12)OCO3 (stereo not drawn) [Compound 17, 4-N-(2-ethyl-5-nitroaniline)-4-deoxy-podophyllotoxin]	4.24 ± 0.79 µM	1.4 ± 0.28 µM	6.01 ± 0.71 µM	
4-N—(N,N-dimethylamino metanil)-4-deoxy-podophyllotoxin [Compound 15]	2.59 ± 0.21 µM	> 100 µM	1.33 ± 0.2 µM	
COc1cc(C2c3cc4c(cc3C(Nc3ccccc3Sc3ccccc3N)C3COC(=O)C23)OCO4)cc(OC)c1O (stereo not drawn) [Compound 20, 4-N-(2 2′-diaminodiphenylsulfide)-4-deoxy-4′-demethylepipodophyllotoxin]	2.17 ± 0.23 µM	1.42 ± 0.12 µM	16.3 ± 0.39 µM	
COc1cc(C2c3cc4c(cc3C(Nc3cc(Cl)c(O)c(Cl)c3)C3COC(=O)C23)OCO4)cc(OC)c1O (stereo not drawn) [Compound 14, 4-N-(2,6-dichloro-4-aminophenol)-4-deoxy-4′-demethylepipodophyllotoxin]	13.8 ± 1.42 µM	9.41 ± 0.59 µM	14.7 ± 0.42 µM	
COc1cc(C2c3cc4c(cc3C(Nc3cccc(S(=O)(=O)N(C)C)c3)C3COC(=O)C23)OCO4)cc(OC)c1O (stereo not drawn) [Compound 16, 4-N—(N,N-dimethylaminometanil)-4-deoxy-4′-demethylepipodophyllotoxin]	1.52 ± 0.39 µM	2.08 ± 0.26 µM	1.06 ± 0.57 µM	
COc1cc(C2c3cc4c(cc3C(Nc3ccccc3C#N)C3COC(=O)C23)OCO4)cc(OC)c1OC (stereo not drawn) [Compound 11, 4-N-(o-aminobenzonitrile)-4-deoxy-podophyllotoxin]	> 100 µM	1.02 ± 0.07 µM	16.9 ± 1.48 µM	
COc1cc([C@@H]2c3cc4c(cc3[C@H](O)[C@H]3COC(=O)[C@H]23)OCO4)cc(OC)c1OC [podophyllotoxin, reference compound]				IC50 (BGC823 cell line [1]; Homo sapiens, BGC-823, 48 h): 75 µM; IC50 (A549 cell line [2]; Homo sapiens, A549, 48 h): 67 µM; IC50 (Hela cell line [3]; Homo sapiens, HeLa, 48 h): 55 µM
COc1cc(C2c3cc4c(cc3C(Nc3ccc(Cc5ccc(N)cc5)cc3)C3COC(=O)C23)OCO4)cc(OC)c1OC (stereo not drawn) [Compound 5, 4-N-(4,4′-diaminodiphenylmethane)-4-deoxy-podophyllotoxin]	17.2 ± 0.34 µM	2.32 ± 0.06 µM	7.07 ± 1.63 µM	
COc1cc(C2c3cc4c(cc3C(Nc3ccccc3C#N)C3COC(=O)C23)OCO4)cc(OC)c1O (stereo not drawn) [Compound 12, 4-N-(o-aminobenzonitrile)-4-deoxy-4′-demethylepipodophyllotoxin]	7.91 ± 0.59 µM	11.6 ± 1.63 µM	1.92 ± 1.21 µM	
